C[n+]1ccn(CCOCCOCCn2cc[n+](C)c2)c1.F[P-](F)(F)(F)(F)F.F[P-](F)(F)(F)(F)F
solubility (mole fraction)
Settings | 283 K | 288 K | 293 K | 298 K | 303 K | 308 K
in DMF | 0.098 | 0.101 | 0.105 | 0.109 | 0.113 | –
in DMSO | – | – | 0.106 | 0.119 | 0.131 | 0.14
in ethanol | 3.3e-05 | 4e-05 | 4.7e-05 | 5.7e-05 | 7.2e-05 | –
in methanol | 0.000198 | 0.000231 | 0.000285 | 0.000369 | 0.000502 | –
in water | 0.00015 | 0.000197 | 0.000257 | 0.000334 | 0.00043 | –
